Results published in US12643879B2, “Functionalized heterocyclic compounds as modulators of stimulator of interferon genes (STING)” (RYVU THERAPEUTICS S.A., priority 2019, dated 2026).
Structures can show the parent of a compound that is named as a salt. Where two headings read alike, the source gives them in different places.

Experiments:
[1] = tested on: NF-κB pathway in THP-1 dual cells; assay: THP-1 Dual reporter assay, NF-κB pathway (SEAP); assay type: cell-based; details: Homo sapiens, THP1-Dual; 18 h stimulation, absorbance at 630 or 655 nm; read-out: THP1 Dual EC50 (μM) NFkB
Protocol: (§1) Compounds of the present invention were tested for their activity using THP-1 dual cells (Invivogen, cat no. thpd-nfis) allowing for simultaneous study of NF-κB pathway and the interferon regulatory factor (IRF) pathway. THP-1 dual cells contain luciferase reporter gene under the control of an ISG54 (interferon-stimulated gene) minimal promoter in conjunction with five interferon-stimulated response elements and a secreted embryonic alkaline phosphatase reporter gene under the control an IFN (interferon)-β minimal promoter fused to five copies of the NF-κB consensus transcriptional response element with three copies of the c-Rel binding site. Following 18 h of stimulation with STING agonist, medium was collected and transferred onto fresh cell culture plate. To verify activity of the IRF pathway, luminescence activity was measured with standard laboratory plate reader immediately after addition 10 μl of the medium to 40 or 50 μl of luminescence reagent (Invivogen, cat. No. rep-qlc2). To verify activity of NF-κB pathway, 10 or 20 μl of the medium was mixed with 80 μl of a detection medium (Invivogen, cat. No. rep-qb2) and incubated for 1 or 2 hours at 37° C. in a humidified atmosphere containing 5% CO2. Next, absorbance at 630 or 655 nm was recorded using standard laboratory plate reader.

[2] = tested on: interferon regulatory factor (IRF) pathway in THP-1 dual cells; assay: THP-1 Dual reporter assay, IRF pathway (luciferase); assay type: cell-based; details: 18 h stimulation, luminescence, read-out: THP1 Dual EC50 (μM) IRF
Protocol: as §1

| SMILES | EC50 [1] [µM] | EC50 ([2]; Homo sapiens, THP1-Dual) [µM] | EC50 [2] [µM] |
| --- | --- | --- | --- |
| Cc1ccc(N2CCC[C@H](N(Cc3ccnc(C)c3)Cc3cn(C(C)C)c4cc(N5C[C@@H](O)[C@@H](O)C5)ccc4c3=O)C2)cn1 [Example 54, 7-[(3R,4S)-3,4-dihydroxypyrrolidin-1-yl]-3-({[(3S)-1-(6-methylpyridin-3-yl)piperidin-3-yl][(2-methylpyridin-4-yl)methyl]amino}methyl)-1-(propan-2-yl)-1,4-dihydroquinolin-4-one] | 1 to 10 | < 1 | – |
| Cc1ccc(N2CCC[C@H](N(Cc3ccnc(C)c3)Cc3cn(C4CC4)c4cc(-n5cnc(C(N)=O)c5)c(F)cc4c3=O)C2)cn1 [Example 64, 1-[1-Cyclopropyl-6-fluoro-3-({[(3S)-1-(6-methylpyridin-3-yl)piperidin-3-yl][(2-methylpyridin-4-yl)methyl]amino}methyl)-4-oxo-1,4-dihydroquinolin-7-yl]-1H-imidazole-4-carboxamide] | < 1 | < 1 | – |
| Cc1ccc(N2CCC[C@H](N(Cc3ccnc(C)c3)Cc3cn(CCO)c4ccccc4c3=O)C2)cn1 [Example 41, 1-(2-hydroxyethyl)-3-({[(3S)-1-(6-methylpyridin-3-yl)piperidin-3-yl][(2-methylpyridin-4-yl)methyl]amino}methyl)-1,4-dihydroquinolin-4-one] | 1 to 10 | 1 to 10 | – |
| Cc1ccc(N2CCC[C@H](N(Cc3ccnc(C)c3)Cc3cn(C4CC4)c4cc(N5CCO[C@H](CO)C5)c(F)cc4c3=O)C2)cn1 (single isomer, unassigned) [Example 73] | < 1 | < 1 | – |
| Cc1ccc(N2CCC[C@H](N(Cc3ccnc(C)c3)Cc3cn(C4CC4)c4cc(N5CCN(CCO)CC5)c(F)cc4c3=O)C2)cn1 [Example 70, 1-cyclopropyl-6-fluoro-7-[4-(2-hydroxyethyl)piperazin-1-yl]-3-({[(3S)-1-(6-methylpyridin-3-yl)piperidin-3-yl][(2-methylpyridin-4-yl)methyl]amino}methyl)-1,4-dihydroquinolin-4-one] | < 1 | < 1 | – |
| Cc1ccc(N2CCC[C@H](N(Cc3ccnc(C)c3)Cc3cn(C4CC4)c4cc(N5CC[C@H](N)C(F)(F)C5)c(F)cc4c3=O)C2)cn1.Cl (single isomer, unassigned) [Example 57, 7-[(4S)-4-amino-3,3-difluoropiperidin-1-yl]-1-cyclopropyl-6-fluoro-3-({[(3S)-1-(6-methylpyridin-3-yl)piperidin-3-yl][(2-methylpyridin-4-yl)methyl]amino}methyl)-1,4-dihydroquinolin-4-one] | < 1 | < 1 | – |
| Cc1ccc(N2CCC[C@H](N(Cc3ccnc(C)c3)Cc3cn(CC(N)=O)c4ccccc4c3=O)C2)cn1 [Example 77, 2-[3-({[(3S)-1-(6-methylpyridin-3-yl)piperidin-3-yl][(2-methylpyridin-4-yl)methyl]amino}methyl)-4-oxo-1,4-dihydroquinolin-1-yl]acetamide] | 1 to 10 | 1 to 10 | – |
| Cc1ccc(N2CCC[C@H](N(Cc3ccnc(C)c3)Cc3cn(C(C)C)c4cc(N5CC[C@@H](O)C5)ccc4c3=O)C2)cn1 [Example 52, 7-[(3R)-3-hydroxypyrrolidin-1-yl]-3-({[(3S)-1-(6-methylpyridin-3-yl)piperidin-3-yl][(2-methylpyridin-4-yl)methyl]amino}methyl)-1-(propan-2-yl)-1,4-dihydroquinolin-4-one] | < 1 | < 1 | – |
| Cc1ccc(N2CCC[C@H](N(Cc3ccnc(C)c3)Cc3cn(C4CC4)c4cc(N5CC[C@@H](N)C(F)(F)C5)c(F)cc4c3=O)C2)cn1.Cl (single isomer, unassigned) [Example 56, 7-[(4R)-4-amino-3,3-difluoropiperidin-1-yl]-1-cyclopropyl-6-fluoro-3-({[(3S)-1-(6-methylpyridin-3-yl)piperidin-3-yl][(2-methylpyridin-4-yl)methyl]amino}methyl)-1,4-dihydroquinolin-4-one] | < 1 | < 1 | – |
| Cc1cc(CN(Cc2cn(C3CC3)c3cc(N4CC[C@H](CO)C4)c(F)cc3c2=O)[C@H]2CCCN(c3cnccn3)C2)ccn1 [Example 94, 1-cyclopropyl-6-fluoro-7-[(3S)-3-(hydroxymethyl)pyrrolidin-1-yl]-3-({[(2-methylpyridin-4-yl)methyl][(3S)-1-(pyrazin-2-yl)piperidin-3-yl]amino}methyl)-1,4-dihydroquinolin-4-one hydrochloride] | < 1 | < 1 | – |
| Cc1ccc(N2CCC[C@H](N(Cc3ccnc(C)c3)Cc3cn(C)c4cc(N5CC[C@@H](N)C(F)(F)C5)ccc4c3=O)C2)cn1 (single isomer, unassigned) [Example 50] | < 1 | < 1 | – |
| Cc1ccc(N2CCC[C@H](N(Cc3ccnc(C)c3)Cc3cn(C4CC4)c4cc(N5CCC6C(CCN6C(=O)OCc6ccc(NC(=O)[C@H](CCCNC(N)=O)NC(=O)[C@@H](NC(=O)CCOCCOCCOCCN=[N+]=[N-])C(C)C)cc6)C5)c(F)cc4c3=O)C2)cn1 (stereo partly drawn) [Example 68A, {4-[(2S)-2-[(2S)-2-(3-{2-[2-(2-azidoethoxy)ethoxy]ethoxy}propanamido)-3-methyl-butanamido]-5-(carbamoylamino)pentanamido]phenyl}methyl 5-[1-cyclopropyl-6-fluoro-3-({[(3S)-1-(6-methylpyridin-3-yl)piperidin-3-yl][(2-methylpyridin-4-yl)methyl]amino}methyl)-4-oxo-1,4-dihydroquinolin-7-yl]-octahydro-1H-pyrrolo[3,2-c]pyridine-1-carboxylate] | > 10 | 1 to 10 | – |
| Cc1cc(CN(Cc2cn(C)c3ccccc3c2=O)[C@H]2CCCN(c3ccc(CO)nc3)C2)ccn1 [Example 40, 3-({[(3S)-1-[6-(hydroxymethyl)pyridin-3-yl]piperidin-3-yl][(2-methylpyridin-4-yl)methyl]amino}methyl)-1-methyl-1,4-dihydroquinolin-4-one] | 1 to 10 | 1 to 10 | – |
| Cc1cc(CN(Cc2cn(C3CC3)c3cc(N4CCC(CO)C4)c(F)cc3c2=O)[C@H]2CCCN(c3cccnc3)C2)ccn1 (stereo in doubt) [Example 88, 1-cyclopropyl-6-fluoro-7-[(3R)-3-(hydroxymethyl)pyrrolidin-1-yl]-3-({[(2-methylpyridin-4-yl)methyl][(3S)-1-(pyridin-3-yl)piperidin-3-yl]amino}methyl)-1,4-dihydroquinolin-4-one hydrochloride] | – | – | < 1 |

Continued, values first:

| EC50 [1] [µM] | EC50 ([2]; Homo sapiens, THP1-Dual) [µM] | EC50 [2] [µM] | SMILES |
| --- | --- | --- | --- |
| < 1 | < 1 | – | C#CCOCCOCCOCCOCCOCCC(=O)Nc1ccc(COC(=O)N(C)CCOc2cc3c(cc2F)c(=O)c(CN(Cc2ccnc(C)c2)[C@H]2CCCN(c4ccc(C)nc4)C2)cn3C2CC2)cc1 [Example 11F, [4-(4,7,10,13,16-pentaoxanonadec-18-ynamido)phenyl]methyl N-(2-{[1-cyclopropyl-6-fluoro-3-({[(3S)-1-(6-methylpyridin-3-yl)piperidin-3-yl][(2-methylpyridin-4-yl)methyl]amino}methyl)-4-oxo-1,4-dihydroquinolin-7-yl]oxy}ethyl)-N-methylcarbamate] |
| > 10 | > 10 | – | Cc1ccc(N2CCC[C@H](N(Cc3ccnc(C)c3)Cc3cn(C4CC4)c4cc(OCCNC(=O)OCc5ccc(NC(=O)[C@H](CCCNC(N)=O)NC(=O)[C@@H](NC(=O)CCOCCOCCOCCN=[N+]=[N-])C(C)C)cc5)c(F)cc4c3=O)C2)cn1 [Example 10A, {4-[(2S)-2-[(2S)-2-(3-{2-[2-(2-azidoethoxy)ethoxy]ethoxy}propanamido)-3-methyl-butanamido]-5-(carbamoylamino)pentanamido]phenyl}methyl N-(2-{[1-cyclopropyl-6-fluoro-3-({[(3S)-1-(6-methylpyridin-3-yl)piperidin-3-yl][(2-methylpyridin-4-yl)methyl]amino}methyl)-4-oxo-1,4-dihydroquinolin-7-yl]oxy}ethyl)carbamate] |
| < 1 | < 1 | – | C#CCOCCOCCOCCOCCOCCC(=O)Nc1ccc(N2CCC[C@H](N(Cc3ccnc(OC)c3)Cc3cn(C4CC4)c4cc(F)c(F)cc4c3=O)C2)cn1 [Example 4A, N-{5-[(3S)-3-{[(1-cyclopropyl-6,7-difluoro-4-oxo-1,4-dihydroquinolin-3-yl)methyl][(2-methoxypyridin-4-yl)methyl]amino}piperidin-1-yl]pyridin-2-yl}-4,7,10,13,16-pentaoxanonadec-18-ynamide] |
| < 1 | < 1 | – | C#CCOCCOCCOCCOCCOCCC(=O)Nc1ccc(CNC(=O)O[C@H]2CCCN(c3cc4c(cc3F)c(=O)c(CN(Cc3ccnc(C)c3)[C@H]3CCCN(c5ccc(C)nc5)C3)cn4C3CC3)C2)cc1 [Example 31B, (3S)-1-[1-cyclopropyl-6-fluoro-3-({[(3S)-1-(6-methylpyridin-3-yl)piperidin-3-yl][(2-methylpyridin-4-yl)methyl]amino}methyl)-4-oxo-1,4-dihydroquinolin-7-yl]piperidin-3-yl N-{[4-(4,7,10,13,16-pentaoxanonadec-18-ynamido)phenyl]methyl}carbamate] |
